Test results taken from US8088804B2, “N-hydroxyamide derivatives possessing antibacterial activity” (Pfizer Inc., priority 2005, dated 2012).
Values after ≈ are worked out from the molar mass of the structure shown. Read-outs that look alike come from different tables or passages of the source.

Assays:
[1] = test system: E. coli (2); assay: Susceptibility testing (MIC, CLSI microdilution); assay type: cell-based, Escherichia coli; settings: 20 h at 35° C., in µg/mL (unit assumed)
Experimental: (§1) Compounds were tested following the microdilution method of CLSI (Clinical and Laboratory Standards Institute. Methods for dilution antimicrobial susceptibility tests for bacteria that grow aerobically; Approved standard—sixth edition. CLSI document M7-A5, CLSI, Wayne, Pa. 2003). Assays were performed in sterile plastic 96-well microtiter trays with round bottom wells (Greiner).
(§2) Stock solutions of test compounds and control antibiotics were prepared at 10 mg/ml in DMSO. Serial 2-fold dilutions of each drug were performed in a microtiter plate across each row using DMSO as solvent at 100-fold the desired final concentration. Wells in columns #1-11 contain drug and column #12 was kept as a growth control for the organism with no drug. Each well in the mother plate was diluted with sterile deionized water and DMSO, mixed, and volumes of 10 μl distributed to each well in the resulting assay plates.
(§3) Stock cultures were prepared using the Microbank™ method (Pro-Lab Diagnostics) and stored at −80° C. To propagate each strain, one bead was removed from the frozen vial and aseptically streaked onto Trypticase Soy Agar (Difco) which were incubated at 35° C. Standardized inocula were prepared using the direct colony suspension method according to CLSI guidelines (Clinical and Laboratory Standards Institute. Methods for dilution antimicrobial susceptibility tests for bacteria that grow aerobically; Approved standard—sixth edition. CLSI document M7-A5, CLSI, Wayne, Pa., 2003). Isolated colonies were selected from an 18-24 hr agar plate and resuspended in 0.9% sterile saline to match a 0.5 McFarland turbidity standard using a calorimeter (Vitek) at 80% of transmitance. The suspension was used within 15 minutes of preparation.
(§4) Mueller-Hinton Broth (MHB) (Difco) was prepared at a 1.1× concentration and supplemented with Ca++ and Mg++ as recommended by CLSI. For each organism, the standardized suspension was diluted 1:180 into appropriate growth medium in a sterile reservoir. After mixing, wells in the drug-containing assay plates were inoculated with a volume of 90 μl. Thus, for each minimum inhibitory concentration (MIC) determination, each well contains a final volume of 100 μl with an inoculum size of approximately 5×10^5 colony forming units (cfu)/ml and no more than 1% DMSO.
(§5) The completed microtiter plates were incubated 20 h at 35° C. in ambient air. Optical density of each well was determined at 600 nm using a VersaMax Microplate reader (Molecular Devices, Sunnyvale, Calif.). The MIC was defined as the lowest drug concentration causing complete suppression of visible bacterial growth.

[2] = test system: E. coli tolC; assay: Susceptibility testing (MIC, CLSI microdilution); assay type: cell-based, Escherichia coli; settings: 20 h at 35° C., unit assumed
Experimental: as §1, §2, §3, §4, §5

[3] = test system: P. aerug. (2); assay: Susceptibility testing (MIC, CLSI microdilution); assay type: cell-based, Pseudomonas aeruginosa; settings: 20 h at 35° C., in µg/mL (unit assumed)
Experimental: as §1, §2, §3, §4, §5

[4] = test system: P. aerug. Hypersuc; assay: Susceptibility testing (MIC, CLSI microdilution); assay type: cell-based, Pseudomonas aeruginosa; settings: 20 h at 35° C., Δ efflux, hypersusceptible strain, unit assumed
Experimental: as §1, §2, §3, §4, §5

[5] = test system: K. pneu.; assay: Susceptibility testing (MIC, CLSI microdilution); assay type: cell-based, Klebsiella pneumoniae; settings: 20 h at 35° C., unit assumed
Experimental: as §1, §2, §3, §4, §5

[6] = test system: H. influen.; assay: Susceptibility testing (MIC, CLSI microdilution); assay type: cell-based, Haemophilus influenzae; settings: 20 h at 35° C., unit assumed
Experimental: as §1, §2, §3, §4, §5

[7] = biological target: P. ae LpxC enzyme (Pseudomonas aeruginosa, UniProt P47205); assay: Enzyme inhibition testing (fluorescamine assay); assay type: biochemical; settings: for inhibition at 10 µg/mL: @10 μg/ml; for inhibition at 0.5 µg/mL: @0.5 μg/ml
Experimental: Compounds were tested based on a published method (Wang W., 2001, Anal Biochem, 290, 338-46) with modifications. Enzyme assays were performed in the assay buffer (50 mM HEPES, pH8, 0.005% Brij, 50 μM ZnSO4, 1 mg/ml BSA) in 96-well V-bottom microtiter plates.
Stock solutions of test compounds and control antibiotics are prepared at 10 mg/ml in DMSO and are diluted in the assay buffer to 6-fold the final testing concentration. 5 μl compound dilution is distributed to the well of the assay plate. EDTA is used as positive control and the final concentration in assay is 12.5 mM.
P. ae LpxC enzyme dilution in the assay buffer is added to the compound in plate and pre-incubated with the compound at room temperature for 10 min. LpxC substrate is added to initiate the enzyme reaction and the final enzyme and substrate concentrations are 1.2 μM and 0.4 mM, respectively. The reaction continues at RT for 4 hrs before diluted with 45 μl of Borate buffer (0.4 M, pH9), followed by addition of 40 μl derivatization reagent (fluorescamine 2 mg/ml DMF). This mixture is incubated at RT for 10 min followed by addition of 150 μl DMF/H2O (1:1). The resulting solution is loaded onto Millipore filter unit (Microcon 10 k MWCO) and spun at 13 k rpm on bench top centrifuge for 15 min. 100 μl of this filtrate is transferred to a low fluorescence clear-bottom 96-well plate (Corning) and the fluorescence is detected at ex360 nm and em465 nm on a Tecan fluorescence plate reader. The percent inhibition is calculated based on EDTA produces 100% inhibition and negative control produces 100% activity.

[8] = @0.1 μg/ml, read-out: ENZYME (percent inhibition)
[9] = read-out: ENZYME (percent inhibition)

Chain of P. ae LpxC enzyme (P47205 whole entry): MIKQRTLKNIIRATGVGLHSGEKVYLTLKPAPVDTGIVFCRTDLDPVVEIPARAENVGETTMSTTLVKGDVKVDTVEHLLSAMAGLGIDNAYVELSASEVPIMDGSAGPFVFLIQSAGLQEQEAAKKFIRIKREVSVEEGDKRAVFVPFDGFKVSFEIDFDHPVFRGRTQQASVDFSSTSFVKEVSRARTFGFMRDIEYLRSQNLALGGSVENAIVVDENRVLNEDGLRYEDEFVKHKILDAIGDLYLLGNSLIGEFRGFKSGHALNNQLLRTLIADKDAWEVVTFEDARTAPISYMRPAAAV

SMILES	MIC E. coli (2) [1]	MIC E. coli tolC [2]	MIC P. aerug. (2) [3]	MIC P. aerug. Hypersuc [4]	MIC K. pneu. [5]	MIC H. influen. [6]	inhibition at 0.1 µg/mL [7, 8]	inhibition at 10 µg/mL [7, 9]	inhibition at 0.5 µg/mL [7, 9]	inhibition at 0.1 µg/mL ([7]; read-out: ENZYME (percent inhibition), @0.1 μg/ml)	inhibition at 1 µg/mL ([7]; @1 μg/ml, read-out: ENZYME (percent inhibition))
CCCc1ccc(-c2ccc(C(=O)N3CCS(=O)(=O)[C@@H]3C(=O)NO)cc2)cc1 [Compound 19, (R)-N-Hydroxy-3-(4′-propylbiphenylcarbonyl)thiazolidine-sulfone-2-carboxamide]	8-16	2 µg/mL (≈ 4.97 µM)	8	2 µg/mL (≈ 4.97 µM)	4 µg/mL (≈ 9.94 µM)	32 µg/mL (≈ 79.5 µM)	10%				
CCCc1ccc(-c2ccc(C(=O)N3CCS[C@H]3C(=O)NO)cc2)cc1 [Compound 13]	>64	> 64 µg/mL	64	16 µg/mL (≈ 43.2 µM)	32 µg/mL (≈ 86.4 µM)	64 µg/mL (≈ 173 µM)		71%			
CCCc1ccc(-c2ccc(C(=O)NC(CF)C(=O)NO)cc2)cc1 (racemic) [Compound 21, DL-4′-Propyl-biphenyl-4-carboxylic acid (2-fluoro-1-hydroxycarbamoyl-ethyl)-amide]	16-32	4 µg/mL (≈ 11.6 µM)	>64	16 µg/mL (≈ 46.5 µM)	8 µg/mL (≈ 23.2 µM)	8 µg/mL (≈ 23.2 µM)			77%		
CCCc1ccc(-c2ccc(C(=O)N3CC[C@H](OC)[C@H]3C(=O)NO)cc2)cc1 [Compound 7]		64 µg/mL (≈ 167 µM)	>64	64 µg/mL (≈ 167 µM)	64 µg/mL (≈ 167 µM)	> 64 µg/mL		84%			
CCCc1ccc(-c2ccc(C(=O)N3CCS[C@@H]3C(=O)NO)cc2)cc1 [Compound 18, (R)-N-Hydroxy-3-(4′-propylbiphenylcarbonyl)thiazolidine-2-carboxamide]	>64	16 µg/mL (≈ 43.2 µM)	>64	32 µg/mL (≈ 86.4 µM)	32 µg/mL (≈ 86.4 µM)	64 µg/mL (≈ 173 µM)			50%		
O=C(NC(C(=O)NO)C(F)(F)F)c1ccc(-c2ccc(F)cc2)cc1 (racemic) [Compound 25, DL-4′-Fluoro-N-(1,1,1-trifluoro-3-(hydroxyamino)-3-oxopropan-2-yl)biphenyl-4-carboxamide]	8	4 µg/mL (≈ 11.2 µM)	8-16	2 µg/mL (≈ 5.61 µM)	16 µg/mL (≈ 44.9 µM)	4 µg/mL (≈ 11.2 µM)	12%				
O=C(NO)[C@H]1N(C(=O)c2ccc(-c3cc(F)cc(F)c3)cc2)CCS1(=O)=O [Compound 36, (S)-3-(3′,5′-Difluorobiphenylcarbonyl)-N-hydroxythiazolidinesulfone-2-carboxamide]	>64	0.125 µg/mL (≈ 0.315 µM)		8 µg/mL (≈ 20.2 µM)	> 64 µg/mL	> 64 µg/mL				8%	
O=C(NC(C(=O)NO)C(F)(F)F)c1ccc(-c2cc(F)cc(F)c2)cc1 (racemic) [Compound 23, DL-3′,5′-Difluoro-biphenyl-4-carboxylic acid (2,2,2-trifluoro-1-hydroxycarbamoyl-ethyl)-amide]	16	8 µg/mL (≈ 21.4 µM)	8	2 µg/mL (≈ 5.34 µM)	16 µg/mL (≈ 42.8 µM)	16 µg/mL (≈ 42.8 µM)	24%				
CCCc1ccc(-c2ccc(C(=O)NC(C(=O)NO)C(F)(F)F)cc2)cc1 (racemic) [Compound 20, DL-4′-Propyl-biphenyl-4-carboxylic acid (2,2,2-trifluoro-1-hydroxycarbamoyl-ethyl)-amide]	0.5	0.25 µg/mL (≈ 0.657 µM)	16	1 µg/mL (≈ 2.63 µM)	0.5 µg/mL (≈ 1.31 µM)	0.25 µg/mL (≈ 0.657 µM)	< 10%				
CCCc1ccc(-c2ccc(C(=O)N3CC[C@H](N)[C@H]3C(=O)NO)cc2)cc1 [Compound 2]	64	32 µg/mL (≈ 87.1 µM)		64 µg/mL (≈ 174 µM)	64 µg/mL (≈ 174 µM)	16 µg/mL (≈ 43.5 µM)			65%		
CCCc1ccc(-c2ccc(C(=O)N3C[C@H](N)[C@@H](O)[C@H]3C(=O)NO)cc2)cc1 [Compound 12]	>64	> 64 µg/mL		8 µg/mL (≈ 20.9 µM)	> 64 µg/mL	32 µg/mL (≈ 83.5 µM)			95%		
O=C(NO)c1cocc1C(=O)Nc1cccc(SC(F)(F)F)c1 [Compound 32]		64 µg/mL (≈ 185 µM)	>64	> 64 µg/mL	> 64 µg/mL	> 64 µg/mL		< 10%			
CCCc1ccc(-c2ccc(C(=O)N3CC[C@@H](O)[C@H]3C(=O)NO)cc2)cc1 [Compound 39]	>64	64 µg/mL (≈ 174 µM)		4 µg/mL (≈ 10.9 µM)	> 64 µg/mL	> 64 µg/mL					95.2%
CCCc1ccc(-c2ccc(C(=O)N3CS(=O)(=O)CC3C(=O)NO)cc2)cc1 (stereo in doubt) [Compound 17, (S)-N-Hydroxy-3-(4′-propylbiphenylcarbonyl)thiazolidine-sulfone-4-carboxamide]		8 µg/mL (≈ 19.9 µM)	16	2 µg/mL (≈ 4.97 µM)	16 µg/mL (≈ 39.8 µM)	> 64 µg/mL			98%		
